Consider 2 compounds from PMC6324650 (Molecular Pharmacology, 2019).

Series [1] can be described thus: Hydrolysis and cyclization of active NHS ester in PBS. It counts as physicochemical. To be noted: PBS (pH 8.2), ligand coupling conditions.
The next series deals with NK1 receptor. To be noted: 37°C; ref Garland et al., 1994; cited from earlier work.

Regarding `O=C(CCCC[C@@H]1SC[C@@H]2NC(=O)N[C@@H]21)NCCCOCCOCCOCCCn1cc(CNC(=O)[C@H](CCCCNC(=O)CCC(=O)ON2C(=O)CCC2=O)NC(=O)CCc2ccc(C3(C(F)(F)F)N=N3)cc2)nn1` [probe 1, 2,5-Dioxopyrrolidin-1-yl 4-oxo-4-(((S)-6-oxo-6-(((1-(15-oxo-19-((3aS,4S,6aR)-2-oxohexahydro-1H-thieno[3,4-d]imidazol-4-yl)-4,7,10-trioxa-14-azanonadecyl)-1H-1,2,3-triazol-4-yl)methyl)amino)-5-(3-(4-(3-(trifluoromethyl)-3H-diazirin-3-yl)phenyl)propanamido)hexyl)amino)butanoate], in series [1], the “hydrolysis and cyclization of the active NHS ester” value is listed as “partial hydrolysis as well as intramolecular cyclization of the active NHS ester were inevitable”.

Turning to substance P [SP], the “time to NK1 receptor internalization upon activation” value in the series on NK1 receptor was 3 min.
